Reference: US9168286B2, “Methods and compositions for use in treatment of patients with autoantibody positive disease” (Human Genome Sciences, Inc., priority 2005, dated 2015)

Tests used:
[1] = Phase 2 clinical trial of belimumab in rheumatoid arthritis: serum concentrations; conditions: human, in vivo
Description: ACR20 response increased to approximately 40% at Week 48.

subjects with SLE [2] = assay: Phase 2 clinical trial of belimumab in SLE with 24-week extension and continuation trial: disease activity (SELENA SLEDAI, SLE Flare Index, PGA, BILAG, SF-36); format: in vivo, human
Method: Further, response rates among the treatment groups in the trial were also analyzed using a combined response endpoint (row 1), which combined a measure of global disease activity as measured by the SS score, with a measure of a patient's overall condition as assessed by the PGA disease activity index and a measure of disease in specific organ systems as measured by the BILAG scale.
Serum autoantibodies, Ig isotypes and complement (C3, C4) were measured at 1-3 month intervals. […]

subjects with SLE [3] = assay: Phase 2 clinical trial of belimumab in SLE: safety
Method: 449 subjects with SLE by ACR criteria (Tan et al., Arthritis Rheum. 25:1271-7, (1982); and Hochberg et al., Arthritis Rheum. 40:1725, (1997)), with a history of measurable autoantibodies and SELENA SLEDAI score ≧4 at screening were dosed.
Subjects who completed the 52-week treatment period were given the option to continue the study for a 24-week extension period. […] B-cells were analyzed every 1-2 months by 4-color FACS (CD19, CD20, CD27, CD69, CD38, CD138 and CD45). Serum autoantibody, including anti-dsDNA Ab, Ig isotypes, total protein, and albumin levels were obtained at the same visits. The likelihood ratio chi-squared, Wilcoxon test or t-test was used to analyze the changes in the biological markers.

subjects with SLE [4] = assay: Phase 2 clinical trial of belimumab in SLE with extension and continuation trial: biologic markers (B cells, autoantibodies, Ig isotypes, C3/C4); format: in vivo, human; set-up: median percent change in CD20+ B cells (reduction) / median percent change in plasmacytoid B cells (CD20+/CD138+) (reduction) / median percent change in activated B cells (CD20+/CD69+) (reduction) / percent of subjects with significant anti-dsDNA reduction / IgE reduction: concentration or dose not given beside the values; conditions: for percent of subjects with significant anti-dsDNA reduction: clinical responders
Method: Of the patients who completed 52 weeks of treatment in the randomized, double-blind, placebo-controlled Phase 2 trial (see example 1), 96% (351/364) elected to enter the 24-week extension phase of the trial, and 92% (321/351) of those who entered completed it.
Serum autoantibodies, Ig isotypes and complement (C3, C4) were measured at 1-3 month intervals. In addition, the population with baseline serologic activity (ANA ≧1:80 or anti-dsDNA Ab ≧30IU; 72% of the original cohort herein called seropositive patients or seropositive subjects) was evaluated for SS, physician global assessment (PGA 0-3 units), BILAG, […] Functional Index (SFI) and autoantibody status at 1-3 month intervals.

[5] = ANA+ subjects, week 52, 1.0 mg/kg, N = 78
[6] = ANA+ subjects, week 52, 4.0 mg/kg, N = 79
[7] = ANA+ subjects, week 52, 10.0 mg/kg, N = 78

Substance: belimumab: an antibody that neutralizes Neutrokine-alpha protein
- Serum concentrations [1]: within the range expected based on the Phase 1 data
- effect of concomitant medications (methotrexate, leflunomide or hydroxychloroquine) on belimumab exposures [1]: no significant effect
- dose response in efficacy (subjects with SLE [2]; 1, 4, 10 mg/kg): no dose response in efficacy
- mean percent change from baseline PGA (subjects with SLE [2]; ANA+ subjects vs ANA+ placebo, as early as week 4, also weeks 8, 16, 48 (p<0.05), 52 (p<0.01)): significant improvement
- mean SF-36 Physical Component Score (SF-36 PCS) (subjects with SLE [2]; ANA+ subjects vs ANA+ placebo, weeks 12, 24, 48, 52, p<0.05): significant improvements
- frequency of increase in prednisone from ≦[…] to >[…] (subjects with SLE [2]; ANA+ subjects, as early as week 8, p<0.05 over weeks 8-12 and 32-40): significant reduction
- combined response endpoint (SS, PGA, BILAG) (subjects with SLE [2]; ANA+ subjects, p=0.0058): significant response
- % of subjects with no worsening by PGA (<0.3 point increase from baseline) (subjects with SLE [2]; [5]): (89.7%)
- % of subjects with reduction in SELENA SLEDAI ≧4 (subjects with SLE [2]; [5]): (52.6%)
- subjects with no worsening by PGA (<0.3 point increase from baseline), number (subjects with SLE [2]; [5]): 70
- subjects with reduction in SELENA SLEDAI ≧4, number (subjects with SLE [2]; [5]): 41
- % of subjects with no worsening by PGA (<0.3 point increase from baseline) (subjects with SLE [2]; [6]): (88.6%)
- % of subjects with reduction in SELENA SLEDAI ≧4 (subjects with SLE [2]; [6]): (48.1%)
- subjects with no worsening by PGA (<0.3 point increase from baseline), number (subjects with SLE [2]; [6]): 70
- subjects with reduction in SELENA SLEDAI ≧4, number (subjects with SLE [2]; [6]): 38
- % of subjects with no worsening by PGA (<0.3 point increase from baseline) (subjects with SLE [2]; [7]): (92.3%)
- % of subjects with reduction in SELENA SLEDAI ≧4 (subjects with SLE [2]; [7]): (47.4%)
- subjects with no worsening by PGA (<0.3 point increase from baseline), number (subjects with SLE [2]; [7]): 72
- subjects with reduction in SELENA SLEDAI ≧4, number (subjects with SLE [2]; [7]): 37
- subjects with no worsening by PGA (<0.3 point increase from baseline), number (subjects with SLE [2]; ANA+ subjects, week 52, All Active, N = 235, P 0.0027 vs placebo): 212
- % of subjects with no worsening by PGA (<0.3 point increase from baseline) (subjects with SLE [2]; ANA+ subjects, week 52, All Active, N = 235, P 0.0027 vs placebo (76.7%)): (90.2%)
- subjects with reduction in SELENA SLEDAI ≧4, number (subjects with SLE [2]; ANA+ subjects, week 52, All Active, N = 235, P 0.1169 vs placebo): 116
- increases in BILAG organ domain score: musculoskeletal (subjects with SLE [2]; ANA+ subjects, week 52, p<0.008): fewer increases in score
- increases in BILAG organ domain score: neurological (subjects with SLE [2]; ANA+ subjects, week 52, p<0.038): fewer increases in score
- increases in BILAG organ domain score: general (subjects with SLE [2]; ANA+ subjects, week 52, p<0.15): trend toward fewer increases in score
- increases in BILAG organ domain score: renal (subjects with SLE [2]; ANA+ subjects, week 52, p<0.15): trend toward fewer increases in score
- reduction in SELENA SLEDAI (SS) score (subjects with SLE [2]; ANA+ subjects, week 52, p=0.0435): 29%
- increases in BILAG organ domain score: cardiovascular & respiratory (subjects with SLE [2]; ANA+ subjects, week 52, p=0.060): trend toward fewer increases in score
- subjects with increases of prednisone to >[…] (subjects with SLE [2]; belimumab-treated, placebo ~15%): ~7%
- PGA score (subjects with SLE [2]; by week 16 (p=0.016) through week 52 (p<0.002), all active vs. placebo): improved
- dosage of prednisone necessary to ameliorate disease manifestations (subjects with SLE [2]; lupus patients, IV days 0, 14, 28 then every four weeks until week 52): effective in reducing the dosage of the corticosteroid prednisone
- symptoms associated with lupus (subjects with SLE [2]; patients with ANA titer 1:80 or greater and/or ≧30 IU/mL anti-dsDNA, IV days 0, 14, 28 then every four weeks until week 52): significantly ameliorated symptoms associated with lupus
- combined response rate (subjects with SLE [2]; seropositive subjects (n=175) who completed 128 weeks): 63%
- combined response rate (subjects with SLE [2]; seropositive subjects (n=321), all belimumab treatment groups combined, week 56, placebo 35%, p<0.05): 49%
- SLE flare rate (SFI), percent of subjects with at least one flare (subjects with SLE [2]; seropositive subjects, fifth six-month interval): 33%
- SLE flare rate (SFI), percent of subjects with at least one flare (subjects with SLE [2]; seropositive subjects, first six-month interval, placebo 76%): 72%
- SLE flare rate (SFI), percent of subjects with at least one flare (subjects with SLE [2]; seropositive subjects, fourth six-month interval): 30%
- SLE flare rate (SFI), percent of subjects with at least one flare (subjects with SLE [2]; seropositive subjects, second six-month interval, placebo 73%): 61%
- SLE flare rate (SFI), percent of subjects with at least one flare (subjects with SLE [2]; seropositive subjects, third six-month interval): 57%
- combined response rate (subjects with SLE [2]; seropositive subjects, weeks 76-128 of continuous therapy (ITT analysis)): 55%
- combined response rate (subjects with SLE [2]; subjects with baseline Anti-dsDNA autoantibodies, week 52): 47%
- combined response rate (subjects with SLE [2]; subjects with baseline Anti-dsDNA autoantibodies, week 128): 53%
- combined response rate (subjects with SLE [2]; subjects with baseline RNP autoantibodies, week 52): 42%
- combined response rate (subjects with SLE [2]; subjects with baseline RNP autoantibodies, week 128): 52%
- combined response rate (subjects with SLE [2]; subjects with baseline Ro autoantibodies, week 52): 41%
- combined response rate (subjects with SLE [2]; subjects with baseline Ro autoantibodies, week 128): 51%
- combined response rate (subjects with SLE [2]; subjects with baseline aCl autoantibodies, week 52): 51%
- combined response rate (subjects with SLE [2]; subjects with baseline aCl autoantibodies, week 128): 51%
- composite numerical BILAG scores (subjects with SLE [2]; vs. placebo): no significant differences
- percent of seropositive subjects with new 1A or 2B BILAG flares (subjects with SLE [2]; week 52, placebo 19%, p=0.0152): 9%
- seropositive subjects with worsening PGA scores (subjects with SLE [2]; week 52, placebo 23%, p=0.0027): 10%
- percent of seropositive subjects with SS>4 point improvement (subjects with SLE [2]; weeks 76-128): 58-60%
- percent of seropositive subjects with new 1A or 2B BILAG flares (subjects with SLE [2]; weeks 96-128): 6-7%
- seropositive subjects with worsening PGA scores (subjects with SLE [2]; weeks 96-128): 7-9%
- Immunogenicity to belimumab, number of subjects (subjects with SLE [3]; 1 mg/kg): 1 subject
- Infusion reactions (subjects with SLE [3]; human, in vivo): rare, with only 1 severe event reported
- tolerability (subjects with SLE [3]; human, in vivo): well tolerated
- subjects with pleurisy (subjects with SLE [3]; placebo 8%, p<0.05): 3.3%
- subjects with elevated Ig isotype levels at baseline returned to normal Ig isotype levels (subjects with SLE [4]; 52/128, p=0.0014, control 16% (7/45)): 41%
- decrease of anti-dsDNA levels (subjects with SLE [4]; anti-dsDNA+ at baseline, weeks 52-128, placebo week 52=9%): 29-44%
- serum IgG, IgA, IgE and IgM levels, median percent change from baseline (subjects with SLE [4]; as early as week 8, p<0.0001 vs placebo): Significant belimumab-induced reductions
- time at which maximal median reductions of each Ig isotype were reached (subjects with SLE [4]; belimumab-treated subjects): 8-24 weeks
- percent of subjects with significant anti-dsDNA reduction (subjects with SLE [4]; week 52): 35%
- percent of subjects with significant anti-dsDNA reduction (subjects with SLE [4]; week 128): 56%
